Measured values taken from US11260057B2, “Combination comprising palbociclib and 6-(2,4-dichlorophenyl)-5-[4-[(3S)-1-(3-fluoropropyl)pyrrolidin-3-yl]oxyphenyl]-8,9-dihydro-7H-benzo[7] annulene-2-carboxylic acid and its use for the treatment of cancer” (SANOFI, priority 2017, dated 2022).

Tests used:
[1] = Tolerability (body weight change, deaths) in the MCF7-Y537S xenograft study in nude mice; assay type: in vivo; details: compound (1) 5 mg/kg PO BID, palbociclib 100 mg/kg PO QD; for Average body weight change in % per group at nadir: days 22 to 51 (30 days); for day of nadir (of average body weight change): day post implantation, days 22 to 51; for Unscheduled death (Day of death): dead/total mice, footnote: non-drug related death or terminations, 30 days
Experimental: The animals required for experiment (plus extra) were pooled and implanted with MCF7-Y537S tumor fragment tissues on day 0. […] Animal body weight was assessed daily.
The dosages are expressed in mg/kg and based on daily body weight per animal. Vehicle treated animals were used as controls. Mice were checked daily and adverse clinical reactions noted. Individual mice were weighed daily until the end of the experiment. Mice would be euthanized when morbid or weight loss ≥20% was observed. Tumors were measured with a caliper twice weekly until final sacrifice. When a tumor size reached approximately 2000 mm^3 or when there are animal health issues (40% area of a tumor ulcerated), animals would be euthanized and date of death recorded. Solid tumor volumes were estimated from two dimensional tumor measurements and calculated according to the following equation: […]
Animal body weight included the tumor weight.

[2] = test system: MCF7-Y537S human breast cancer cell line xenograft; assay: Anti-tumor efficacy against subcutaneous MCF7-Y537S human breast cancer cell line xenograft in female nude mice; assay type: in vivo; design: key to Biological Interpretation: Active: ΔT/ΔC≤40% is considered as therapeutically active; Very active: ΔT/ΔC<0% is considered as tumor regression (very active); Inactive: ΔT/ΔC>40% is considered as therapeutically inactive; details: for Tumor volume changes from baseline: Median: compound (1) 5 mg/kg BID, palbociclib 100 mg/kg QD, PO; for Biological Interpretation: based on ΔT/ΔC at day 51; for Biological Interpretation / ΔT/ΔC in % at day 51 / Regressions Complete / Regressions Partial: compound (1) 5 mg/kg PO BID, palbociclib 100 mg/kg PO QD; for ΔT/ΔC in % at day 51: days 22 to 51; for Regressions Complete: mice with complete regression/evaluable mice; for Regressions Complete / Regressions Partial: 30 days; for Regressions Partial: mice with partial regression/evaluable mice
Experimental: In the present study, the anti-tumor efficacy of 6-(2,4-dichlorophenyl)-5-[4-[(3S)-1-(3-fluoropropyl)pyrrolidin-3-yl]oxyphenyl]-8,9-dihydro-7H-benzo[7]annulene-2-carboxylic acid (“compound (1)”), combined with the cyclin-dependent kinase 4 (CDK4) inhibitor palbociclib, was investigated after 30 days treatment against a subcutaneous MCF7-Y537S human breast cancer cell line xenograft in female nude mice.
The treated groups included compound (1) at 5 mg/kg alone, palbociclib at 100 mg/kg alone, and the combination of compound (1) and palbociclib at the same dose and regime.
Compound (1) was orally dosed twice a day (BID) and palbociclib was orally dosed once a day (QD) for 30 days. Anti-tumor efficacy was evaluated by tumor volume measurement.
Female athymic nude mice were obtained from Harlan (Indianapolis, Ind., USA). Animals were allowed to acclimate for at least four days before the study enrollment. Mice were 12 to 13 weeks old and weighed between 20.2 and 27.3 grams at the beginning of the treatments. These animals were housed under conditions outlined in the NIH Guide for Care and Use of Laboratory Animals in compliance with the USDA Laboratory Animal Welfare Act.
Parental MCF7 cells were obtained from the American Type Culture Collection (ATCC® HTB-22™). MCF7-Y537S (ESR1) cell line was MCF7 cells expressing the ER.Y537S variant that was generated by Sanofi Biology Discovery Group. Y537S mutation was introduced in ESR1 construct (GenBank NM_000125.3) by site directed mutagenesis (Toy W. et al., Cancer Discovery, 2017, 7, 277-287). The construct was transfected in MCF7 cells which were selected for their growth in absence of estradiol. MCF-Y537S is an ESR1 mutation that confers estrogen-independent activity to ERα (Estrogen Receptor alpha) and contributes to endocrine resistant disease (Robinson D. R. et al., Nat Genet., 2013, 45 (12), 1446-1451). The cells were grown in Eagle's Minimum Essential Medium (EMEM) supplemented with 10% fetal bovine serum (FBS), human Insulin, in 5% CO2 at 37° C. The cells were harvested in 0.25% Trypsin EDTA and washed by Dulbecco's Phosphate Buffered Saline (DPBS) and re-suspended in DPBS with 50% matrigel (Becton Dickinson catalog No. 356234, lot No. 32277). The cells (20×10^6 cells/per mouse) were subcutaneously (SC) implanted into the right flank of female nude mice.
When the MCF7-Y537S tumors were established, the tumors were reserved as tumor stocks for fragment implantation. The tumors were serially propagated through fragment tissue transplantation subcutaneously. The fragment tumor tissues were subcutaneously implanted into the right flank of female nude mice. 50 mice were assigned in this experiment.
Compound (1) and palbociclib (commercially available, marketed under the tradename Ibrance®) were formulated as follows: […]
Compound (1) was prepared in Vehicle A, then Solutol HS15 (purchased from Sigma) was added to the final concentration 5%, and the solution was left under stirring for an hour for complete dissolution. After that, vehicle B was added. The final pH was 5.5.
Palbociclib was prepared in Vehicle A, then Solutol HS15 was added to the final concentration 5%, and the solution was left under stirring for an hour for complete dissolution. After that, vehicle B was added. The final pH was 5.5.
The animals required for experiment (plus extra) were pooled and implanted with MCF7-Y537S tumor fragment tissues on day 0. On day 21 post implantation, the mice were pooled and randomly distributed to the treatment and control groups (10 mice per group), where median tumor volumes for each group ranged from 202.5 to 211.5 mm^3. Treatments of compound (1) and palbociclib were initiated on day 22. Compound (1) was orally administered at 5 mg/kg BID (at least 5 hours apart) and palbociclib was orally administered at 100 mg/kg QD, for 30 days. Animal body weight was assessed daily.
The dosages are expressed in mg/kg and based on daily body weight per animal. Vehicle treated animals were used as controls. […]

Row | SMILES | Average body weight change in % per group at nadir [1] [%] | day of nadir (of average body weight change) [1] | Unscheduled death (Day of death) [1] | Tumor volume changes from baseline: Median ([2]; Day 27) [mm^3] | Tumor volume changes from baseline: Median ([2]; Day 30) [mm^3] | Tumor volume changes from baseline: Median ([2]; Day 34) [mm^3] | Tumor volume changes from baseline: Median ([2]; Day 37) [mm^3] | Tumor volume changes from baseline: Median ([2]; Day 41) [mm^3] | Tumor volume changes from baseline: Median ([2]; Day 44) [mm^3] | Tumor volume changes from baseline: Median ([2]; Day 49) [mm^3] | Tumor volume changes from baseline: Median ([2]; Day 51) [mm^3] | Biological Interpretation [2] | ΔT/ΔC in % at day 51 [2] [%] | Regressions Complete [2] | Regressions Partial [2]
1 | O=C(O)c1ccc2c(c1)CCCC(c1ccc(Cl)cc1Cl)=C2c1ccc(O[C@H]2CCN(CCCF)C2)cc1 [Compound (1), 6-(2,4-dichlorophenyl)-5-[4-[(3S)-1-(3-fluoropropyl)pyrrolidin-3-yl]oxyphenyl]-8,9-dihydro-7H-benzo[7]annulene-2-carboxylic acid] | −1.7 | 22 | 2/10 | 114.0 | 171.5 | 270.5 | 336.0 | 440.0 | 498.5 | 727.5 | 782.0 | Inactive | 59 | 0/8 | 0/8
2 | CC(=O)c1c(C)c2cnc(Nc3ccc(N4CCNCC4)cn3)nc2n(C2CCCC2)c1=O [Palbociclib, 6-acetyl-8-cyclopentyl-5-methyl-2-[5-(1-piperazinyl)pyridine-2-ylamino]pyrido[2,3-d]pyrimidin-7(8H)-one] | −2.0 | 22 | 0/10 | 68.5 | 98.0 | 121.5 | 132.0 | 193.5 | 249.5 | 298.5 | 363.5 | Active | 27 | 0/10 | 0/10
